Experimental data as given in ChEMBL document CHEMBL3822420, “New peptide deformylase inhibitors design, synthesis and pharmacokinetic assessment” (Bioorg Med Chem Lett, 2016).
Converted amounts (≈) assume the structure as drawn.

Experiments:
[1] = AUC (0 to infinity) in Sprague-Dawley rat at 10 mg/kg, po; type: ADME, organism-based; design: dose 10 mg/kg, time infinity, route oral; settings: Sprague-Dawley, in vivo
[2] = Half life in Sprague-Dawley rat at 2 mg/kg, iv; type: ADME, organism-based; settings: in vivo
[3] = Oral bioavailability in Sprague-Dawley rat at 10 mg/kg; type: ADME, organism-based; settings: in vivo
[4] = Tmax in Sprague-Dawley rat at 2 mg/kg, iv; type: ADME, organism-based; settings: in vivo
[5] = Half life in Sprague-Dawley rat at 10 mg/kg, po; type: ADME, organism-based; settings: Sprague-Dawley, in vivo
[6] = system: Staphylococcus epidermidis; experiment: Antibacterial activity against methicillin-sensitive Staphylococcus epidermidis 14-2; type: functional
[7] = system: Staphylococcus epidermidis; experiment: Antibacterial activity against methicillin-sensitive Staphylococcus epidermidis 14-1; type: functional
Rattus norvegicus [8] = experiment: (§1) AUC (0 to t) in Sprague-Dawley rat at 2 mg/kg, iv; type: ADME, organism-based; settings: in vivo
Staphylococcus aureus [9] = experiment: Antibacterial activity against methicillin-resistant Staphylococcus aureus 14-5; type: functional
[10] = MRT (0 to t) in Sprague-Dawley rat at 10 mg/kg, po; type: ADME, organism-based; settings: in vivo
Escherichia coli [11] = experiment: Antibacterial activity against Escherichia coli 14-2; type: functional
[12] = system: Staphylococcus epidermidis; experiment: Antibacterial activity against methicillin-sensitive Staphylococcus epidermidis 14-3; type: functional
[13] = AUC (0 to t) in Sprague-Dawley rat at 10 mg/kg, po; type: ADME, organism-based; settings: in vivo
[14] = Clearance in Sprague-Dawley rat at 2 mg/kg, iv; type: ADME, organism-based; settings: in vivo
Staphylococcus aureus [15] = experiment: Antibacterial activity against methicillin-sensitive Staphylococcus aureus 14-2; type: functional
Escherichia coli [16] = experiment: Antibacterial activity against Escherichia coli 14-2 expressing extended-spectrum beta-lactamase; type: functional
Staphylococcus aureus [17] = experiment: Antibacterial activity against methicillin-sensitive Staphylococcus aureus 14-3; type: functional
Staphylococcus aureus [18] = experiment: Antibacterial activity against methicillin-sensitive Staphylococcus aureus 14-4; type: functional
Rattus norvegicus [19] = experiment: (§2) AUC (0 to infinity) in Sprague-Dawley rat at 2 mg/kg, iv; type: ADME, organism-based; design: dose 2 mg/kg, route intravenous, time infinity; settings: in vivo
Rattus norvegicus [20] = experiment: Volume of distribution at steady state in Sprague-Dawley rat at 10 mg/kg, po; type: ADME, organism-based; settings: in vivo
Enterococcus faecalis [21] = experiment: Antibacterial activity against Enterococcus faecalis 14-3; type: functional
Escherichia coli [22] = experiment: Antibacterial activity against Escherichia coli 14-1 expressing extended-spectrum beta-lactamase; type: functional
Escherichia coli [23] = experiment: Antibacterial activity against Escherichia coli 14-1; type: functional
[24] = Volume of distribution at steady state in Sprague-Dawley rat at 2 mg/kg, iv; type: ADME, organism-based; settings: in vivo, read-out: Vdss
[25] = Clearance in Sprague-Dawley rat at 10 mg/kg, po; type: ADME, organism-based; settings: Sprague-Dawley, in vivo
[26] = Tmax in Sprague-Dawley rat at 10 mg/kg, po; type: ADME, organism-based; settings: in vivo
[27] = Cmax in Sprague-Dawley rat at 2 mg/kg, iv; type: ADME, organism-based; design: dose 2 mg/kg, route intravenous; settings: in vivo
[28] = MRT (0 to t) in Sprague-Dawley rat at 2 mg/kg, iv; type: ADME, organism-based; settings: in vivo
[29] = Cmax in Sprague-Dawley rat at 10 mg/kg, po; type: ADME, organism-based; design: dose 10 mg/kg, route oral; settings: in vivo
Enterococcus faecalis [30] = experiment: Antibacterial activity against Enterococcus faecalis 14-1; type: functional
Enterococcus faecalis [31] = experiment: Antibacterial activity against Enterococcus faecalis 14-5; type: functional
[32] = system: Staphylococcus epidermidis; experiment: Antibacterial activity against methicillin-resistant Staphylococcus epidermidis 14-4; type: functional
Enterococcus faecalis [33] = experiment: Antibacterial activity against Enterococcus faecalis 14-2; type: functional
Staphylococcus aureus [34] = experiment: Antibacterial activity against methicillin-sensitive Staphylococcus aureus 14-1; type: functional
Staphylococcus aureus [35] = experiment: Antibacterial activity against methicillin-resistant Staphylococcus aureus 14-1; type: functional
[36] = system: Staphylococcus epidermidis; experiment: Antibacterial activity against methicillin-resistant Staphylococcus epidermidis 14-1; type: functional
[37] = as §1; type: ADME, organism-based; settings: Sprague-Dawley, in vivo
Staphylococcus aureus [38] = experiment: Antibacterial activity against methicillin-resistant Staphylococcus aureus 14-4; type: functional
[39] = system: Staphylococcus epidermidis; experiment: Antibacterial activity against methicillin-resistant Staphylococcus epidermidis 14-3; type: functional
[40] = as §2; type: ADME, organism-based; design: dose 2 mg/kg, route intravenous, time infinity; settings: Sprague-Dawley, in vivo
[41] = system: Staphylococcus epidermidis; experiment: Antibacterial activity against methicillin-resistant Staphylococcus epidermidis 14-2; type: functional
Staphylococcus aureus [42] = experiment: Antibacterial activity against methicillin-resistant Staphylococcus aureus 14-2; type: functional

| SMILES | AUC(0-inf) [1] [ng·h/mL] | half-life [2] [min] | bioavailability [3] [%] | Tmax [4] [min] | half-life [5] [min] | MIC [6] [µg/mL] | MIC [7] [µg/mL] | MIC (Staphylococcus aureus [9]) [µg/mL] | MRT last [10] [h] | MIC (Escherichia coli [11]) [µg/mL] | MIC [12] [µg/mL] | AUC(0-t) [13] [ng·h/mL] | clearance [14] [mL/min/kg] | MIC (Staphylococcus aureus [15]) [µg/mL] | MIC (Escherichia coli [16]) [µg/mL] | MIC (Staphylococcus aureus [17]) [µg/mL] | MIC (Staphylococcus aureus [18]) [µg/mL] | Vdss (Rattus norvegicus [20]) [L/kg] | MIC (Enterococcus faecalis [21]) [µg/mL] | MIC (Escherichia coli [22]) [µg/mL] | further results |
| --- | --- | --- | --- | --- | --- | --- | --- | --- | --- | --- | --- | --- | --- | --- | --- | --- | --- | --- | --- | --- | --- |
| CCCC[C@H](CN(O)C=O)C(=O)N1CC2(CC2)C[C@H]1C(=O)Nc1ncc(C)s1 | 2130 | 68.4 | 30 | 4.8 | 300 | < 0.008 | < 0.008 | < 0.008 | 4.42 | 32 (≈ 78.3 µM) | < 0.008 | 2080 | 23.5 | < 0.008 | 32 (≈ 78.3 µM) | < 0.008 | < 0.008 | 36.5 | 0.5 (≈ 1.22 µM) | 0.125 (≈ 0.306 µM) | AUCt (Rattus norvegicus [8]): 653 ng·h/mL; AUC (Rattus norvegicus [19]): 653 ng·h/mL; MIC (Escherichia coli [23]): 32 µg/mL (≈ 78.3 µM); Vd [24]: 3.6 L/kg; CL/F [25]: 82.3 mL/min/kg; Tmax [26]: 34.8 min; Cmax [27]: 1090 ng/mL; MRT last [28]: 1.74 h; Cmax [29]: 630 ng/mL; MIC (Enterococcus faecalis [30]): 0.125 µg/mL (≈ 0.306 µM); MIC (Enterococcus faecalis [31]): 0.25 µg/mL (≈ 0.612 µM); MIC [32]: < 0.008 µg/mL; MIC (Enterococcus faecalis [33]): 0.5 µg/mL (≈ 1.22 µM); MIC (Staphylococcus aureus [34]): < 0.008 µg/mL |
| CCCC[C@H](CN(O)C=O)C(=O)N1CC2(CC2)C[C@H]1c1nc(-c2cccnc2)no1 | 1300 | 66.6 | 40 | 4.8 | 76.8 | 0.5 (≈ 1.21 µM) | 0.125 (≈ 0.302 µM) | 0.5 (≈ 1.21 µM) | 1.68 | 64 (≈ 155 µM) | 0.125 (≈ 0.302 µM) | 1280 | 51.2 | 0.5 (≈ 1.21 µM) | 32 (≈ 77.4 µM) | 0.5 (≈ 1.21 µM) | 0.5 (≈ 1.21 µM) | 15.1 | 2 (≈ 4.84 µM) | 1 (≈ 2.42 µM) | MIC (Staphylococcus aureus [35]): 0.5 µg/mL (≈ 1.21 µM); MIC [36]: 0.25 µg/mL (≈ 0.605 µM); AUC(0-t) [37]: 654 ng·h/mL; MIC (Staphylococcus aureus [38]): 0.5 µg/mL (≈ 1.21 µM); MIC [39]: 0.125 µg/mL (≈ 0.302 µM); AUC(0-inf) [40]: 657 ng·h/mL; MIC [41]: 0.25 µg/mL (≈ 0.605 µM); MIC (Escherichia coli [23]): 64 µg/mL (≈ 155 µM); Vd [24]: 1.9 L/kg; CL/F [25]: 136 mL/min/kg; Tmax [26]: 15 min; Cmax [27]: 929 ng/mL; MRT last [28]: 0.61 h; Cmax [29]: 893 ng/mL; MIC (Enterococcus faecalis [30]): 2 µg/mL (≈ 4.84 µM); MIC (Enterococcus faecalis [31]): 2 µg/mL (≈ 4.84 µM); MIC [32]: 0.5 µg/mL (≈ 1.21 µM); MIC (Staphylococcus aureus [42]): 0.5 µg/mL (≈ 1.21 µM); MIC (Enterococcus faecalis [33]): 2 µg/mL (≈ 4.84 µM); MIC (Staphylococcus aureus [34]): 0.5 µg/mL (≈ 1.21 µM) |
| CCCC[C@H](CN(O)C=O)C(=O)N1CC2(CC2)C[C@H]1c1nc2ccccc2[nH]1 | 2380 | 314 | 37 | 4.8 | 268 | 2 (≈ 5.2 µM) | 0.5 (≈ 1.3 µM) | 0.5 (≈ 1.3 µM) | 4.13 | 32 (≈ 83.2 µM) | 0.5 (≈ 1.3 µM) | 2340 | 26.4 | 2 (≈ 5.2 µM) | 32 (≈ 83.2 µM) | 2 (≈ 5.2 µM) | 2 (≈ 5.2 µM) | 27.4 | 8 (≈ 20.8 µM) | 0.5 (≈ 1.3 µM) | MIC (Staphylococcus aureus [35]): 1 µg/mL (≈ 2.6 µM); MIC [36]: 1 µg/mL (≈ 2.6 µM); AUC(0-t) [37]: 1260 ng·h/mL; MIC (Staphylococcus aureus [38]): 2 µg/mL (≈ 5.2 µM); MIC [39]: 0.5 µg/mL (≈ 1.3 µM); AUC(0-inf) [40]: 1270 ng·h/mL; MIC [41]: 1 µg/mL (≈ 2.6 µM); MIC (Escherichia coli [23]): 32 µg/mL (≈ 83.2 µM); Vd [24]: 3 L/kg; CL/F [25]: 70.9 mL/min/kg; Tmax [26]: 15 min; Cmax [27]: 1740 ng/mL; MRT last [28]: 1.91 h; Cmax [29]: 1680 ng/mL; MIC (Enterococcus faecalis [30]): 8 µg/mL (≈ 20.8 µM); MIC (Enterococcus faecalis [31]): 64 µg/mL (≈ 166 µM); MIC [32]: 1 µg/mL (≈ 2.6 µM); MIC (Staphylococcus aureus [42]): 2 µg/mL (≈ 5.2 µM); MIC (Enterococcus faecalis [33]): 8 µg/mL (≈ 20.8 µM); MIC (Staphylococcus aureus [34]): 2 µg/mL (≈ 5.2 µM) |
| CCCC[C@H](CN(O)C=O)C(=O)N1CC2(CC2)C[C@H]1C(=O)Nc1cc(C(C)(C)C)on1 | 1980 | 73.8 | 35 | 4.8 | 271 | 0.125 (≈ 0.288 µM) | 0.03 (≈ 0.069 µM) | 0.06 (≈ 0.138 µM) | 3.43 | 64 (≈ 147 µM) | 0.015 (≈ 0.0345 µM) | 1950 | 29.6 | 0.125 (≈ 0.288 µM) | 64 (≈ 147 µM) | 0.25 (≈ 0.575 µM) | 0.06 (≈ 0.138 µM) | 36.2 | 0.5 (≈ 1.15 µM) | 1 (≈ 2.3 µM) | MIC (Staphylococcus aureus [35]): 0.06 µg/mL (≈ 0.138 µM); MIC [36]: 0.03 µg/mL (≈ 0.069 µM); AUC(0-t) [37]: 1140 ng·h/mL; MIC (Staphylococcus aureus [38]): < 0.008 µg/mL; MIC [39]: 0.015 µg/mL (≈ 0.0345 µM); AUC(0-inf) [40]: 1140 ng·h/mL; MIC [41]: 0.03 µg/mL (≈ 0.069 µM); MIC (Escherichia coli [23]): 64 µg/mL (≈ 147 µM); Vd [24]: 2.7 L/kg; CL/F [25]: 90.6 mL/min/kg; Tmax [26]: 34.8 min; Cmax [27]: 930 ng/mL; MRT last [28]: 1.5 h; Cmax [29]: 860 ng/mL; MIC (Enterococcus faecalis [30]): 0.5 µg/mL (≈ 1.15 µM); MIC (Enterococcus faecalis [31]): > 128 µg/mL; MIC [32]: 0.03 µg/mL (≈ 0.069 µM); MIC (Staphylococcus aureus [42]): 0.06 µg/mL (≈ 0.138 µM); MIC (Enterococcus faecalis [33]): 0.5 µg/mL (≈ 1.15 µM); MIC (Staphylococcus aureus [34]): 0.125 µg/mL (≈ 0.288 µM) |
